Molecules are shown by their SMILES. Calls of active or inactive are those of the source. The rule behind the calls is not given here.

Data set [1] deals with Mus musculus. Nature of the data set: Antiinflammatory activity in C57BL/6 mouse assessed as inhibition of LPS-induced destruction of alveolar structure at 10 to 20 mg/kg, ip pretreated for 30 mins followed by LPS addition measured after 6 hrs by hematoxylin and eosin staining based microscopic analysis. It counts as functional, organism-based.
Data set [2] deals with Mus musculus. Nature of the data set: Antiinflammatory activity in C57BL/6 mouse assessed as reduction in lung wet/dry ratio at 10 to 20 mg/kg, ip pretreated for 30 mins followed by LPS addition measured after 6 hrs. The format is functional, organism-based.
The test system of data set [3] is Mus musculus. Kind of data set: Antiinflammatory activity in C57BL/6 mouse assessed as inhibition of LPS-induced inflammatory cell infiltration at 10 to 20 mg/kg, ip pretreated for 30 mins followed by LPS addition measured after 6 hrs by hematoxylin and eosin staining based microscopic analysis. It counts as functional, organism-based.
For data set [4], the system named is Mus musculus. Kind of data set: Antiinflammatory activity in C57BL/6 mouse assessed as inhibition of LPS-induced IL-1beta mRNA expression in lungs at 10 to 20 mg/kg, ip by RT-qPCR analysis. It counts as functional, organism-based.
Data set [5] concerns Mus musculus. Nature of the data set: Antiinflammatory activity in C57BL/6 mouse assessed as inhibition of LPS-induced lung edema at 10 to 20 mg/kg, ip pretreated for 30 mins followed by LPS addition measured after 6 hrs by hematoxylin and eosin staining based microscopic analysis. It counts as functional, organism-based.
In data set [6] the test system is Mus musculus. Nature of the data set: Antiinflammatory activity in C57BL/6 mouse assessed as inhibition of LPS-induced total protein level in bronchoalveolar lavage fluid at 10 to 20 mg/kg, ip pretreated for 30 mins followed by LPS addition measured after 6 hrs. It counts as functional, organism-based.
Data set [7] concerns Peritoneal macrophage. Nature of the data set: Antiinflammatory activity in mouse primary peritoneal macrophages assessed as inhibition of LPS-induced IL-6 production at 10 uM preincubated for 30 mins followed by LPS addition and measured after 24 hrs by ELISA relative to control. It counts as functional.
Data set [8] deals with Mus musculus. Nature of the data set: Antiinflammatory activity in C57BL/6 mouse assessed as inhibition of LPS-induced macrophage filtration in lung by measuring CD68 protein expression at 10 to 20 mg/kg, ip pretreated for 30 mins followed by LPS addition measured after 6 hrs by immunohistochemistry. The format is functional, organism-based.
Data set [9] deals with Mus musculus. Nature of the data set: Antiinflammatory activity in C57BL/6 mouse assessed as inhibition of LPS-induced TNF-alpha level in bronchoalveolar lavage fluid at 10 to 20 mg/kg, ip pretreated for 30 mins followed by LPS addition measured after 6 hrs. It counts as functional, organism-based.
Data set [10] relates to Mus musculus. Kind of data set: Antiinflammatory activity in C57BL/6 mouse assessed as inhibition of LPS-induced IL-6 mRNA expression in lungs at 10 to 20 mg/kg, ip by RT-qPCR analysis. It counts as functional, organism-based.
The subject of data set [11] is Mus musculus. Nature of the data set: Antiinflammatory activity in C57BL/6 mouse assessed as inhibition of LPS-induced alveolar hemorrhage at 10 to 20 mg/kg, ip pretreated for 30 mins followed by LPS addition measured after 6 hrs by hematoxylin and eosin staining based microscopic analysis. It counts as functional, organism-based.
The test system of data set [12] is Peritoneal macrophage. Nature of the data set: Antiinflammatory activity in mouse primary peritoneal macrophages assessed as inhibition of LPS-induced VCAM-1 mRNA expression at 5 to 10 uM by RT-qPCR analysis. The format is functional, cell-based.
In data set [13] the test system is Mus musculus. Kind of data set: Antiinflammatory activity in C57BL/6 mouse assessed as inhibition of LPS-induced VCAM-1 mRNA expression in lungs at 10 to 20 mg/kg, ip by RT-qPCR analysis. It counts as functional, organism-based.
Data set [14] relates to Peritoneal macrophage. Nature of the data set: Antiinflammatory activity in mouse primary peritoneal macrophages assessed as inhibition of LPS-induced IL-6 production preincubated for 30 mins followed by LPS addition and measured after 24 hrs by ELISA. The format is functional, cell-based.
In data set [15] the test system is Mus musculus. Nature of the data set: Antiinflammatory activity in C57BL/6 mouse assessed as inhibition of LPS-induced total number of cells in bronchoalveolar lavage fluid at 10 to 20 mg/kg, ip pretreated for 30 mins followed by LPS addition measured after 6 hrs by Giemsa staining-based assay. The format is functional, organism-based.
Data set [16] relates to Peritoneal macrophage. Nature of the data set: Antiinflammatory activity in mouse primary peritoneal macrophages assessed as inhibition of LPS-induced TNF-alpha production preincubated for 30 mins followed by LPS addition and measured after 24 hrs by ELISA. The format is functional, cell-based.
For data set [17], the system named is Peritoneal macrophage. Kind of data set: Cytotoxicity against mouse primary peritoneal macrophages assessed as reduction in cell viability at 10 uM after 24 hrs by MTT assay. The format is cell-based.
For data set [18], the system named is Mus musculus. Nature of the data set: Antiinflammatory activity in C57BL/6 mouse assessed as inhibition of LPS-induced IL-6 level in bronchoalveolar lavage fluid at 10 to 20 mg/kg, ip pretreated for 30 mins followed by LPS addition measured after 6 hrs. The format is functional, organism-based.
Data set [19] relates to Mus musculus. Nature of the data set: Antiinflammatory activity in C57BL/6 mouse assessed as inhibition of LPS-induced neutrophil filtration in lung by measuring myeloperoxidase activity at 10 to 20 mg/kg, ip pretreated for 30 mins followed by LPS addition measured after 6 hrs by Giemsa staining-based assay. The format is functional, organism-based.
For data set [20], the system named is Peritoneal macrophage. Nature of the data set: Antiinflammatory activity in mouse primary peritoneal macrophages assessed as inhibition of LPS-induced TNF-alpha production at 10 uM preincubated for 30 mins followed by LPS addition and measured after 24 hrs by ELISA relative to control. The format is functional.
Data set [21] concerns Peritoneal macrophage. Kind of data set: Antiinflammatory activity in mouse primary peritoneal macrophages assessed as inhibition of LPS-induced IL-1beta mRNA expression at 5 to 10 uM by RT-qPCR analysis. The format is functional, cell-based.
In data set [22] the test system is Peritoneal macrophage. Kind of data set: Antiinflammatory activity in mouse primary peritoneal macrophages assessed as inhibition of LPS-induced IL-6 mRNA expression at 5 to 10 uM by RT-qPCR analysis. It counts as functional, cell-based.

For `Cn1c(S(=O)(=O)c2ccc(C(F)(F)F)cc2)cc2ccccc21`, the inhibition entry in the data set with Mus musculus [1], in the data set on Mus musculus [3], in the data set on Mus musculus [4], in the data set with Mus musculus [5], in the data set on Mus musculus [6] and in the data set with Mus musculus [8] was “Active” in each case. The inhibition result in the data set on Mus musculus [9], in the data set on Mus musculus [10], in the data set with Mus musculus [11], in the data set on Peritoneal macrophage [12], with Mus musculus [13] and in the data set on Mus musculus [15] was “Active” each time. For the same compound, the inhibition result in the data set with Mus musculus [18], in the data set with Mus musculus [19], in the data set on Peritoneal macrophage [21] and with Peritoneal macrophage [22] was “Active” throughout. In addition, in the data set on Mus musculus [2], the outcome was Active. For the same compound, the inhibition at 10 µM in the data set on Peritoneal macrophage [7] is 88%; with Peritoneal macrophage [20], 82%. The IC50 in the data set on Peritoneal macrophage [14] came to 1820 nM; with Peritoneal macrophage [16] it was 8010 nM. Moreover, the inhibition result in the data set with Peritoneal macrophage [14] and with Peritoneal macrophage [16] was “Dose-dependent effect” in each case. Besides, the Activity result in the data set on Peritoneal macrophage [17] was “Non-Toxic”.
For the compound `Cn1c(S(=O)(=O)c2ccc(C(C)(C)C)cc2)cc2ccccc21`, the inhibition entry with Mus musculus [1], in the data set with Mus musculus [3], with Mus musculus [4], in the data set with Mus musculus [5], in the data set on Mus musculus [6] and in the data set on Mus musculus [8] was “Active” in each case. The inhibition result in the data set with Mus musculus [9], in the data set on Mus musculus [10], in the data set on Mus musculus [11], in the data set with Peritoneal macrophage [12], in the data set with Mus musculus [13] and in the data set with Mus musculus [15] was “Active” throughout. Further, the inhibition entry in the data set on Mus musculus [18], in the data set on Mus musculus [19], in the data set with Peritoneal macrophage [21] and in the data set with Peritoneal macrophage [22] was “Active” each time. Moreover, the result in the data set on Mus musculus [2] was Active. For the same compound, the inhibition at 10 µM in the data set with Peritoneal macrophage [7] is 88%; in the data set on Peritoneal macrophage [20], 82%. Further, the IC50 stood at 1100 nM in the data set on Peritoneal macrophage [14] and 3080 nM in the data set with Peritoneal macrophage [16]. Further, the inhibition result in the data set on Peritoneal macrophage [14] and with Peritoneal macrophage [16] was “Dose-dependent effect” each time. The Activity result in the data set on Peritoneal macrophage [17] is given as “Non-Toxic”.

(Values after ChEMBL document CHEMBL4382208, “Design, synthesis and biological evaluation of novel 2-sulfonylindoles as potential anti-inflammatory therapeutic agents for treatment of acute lung injury” (Eur J Med Chem, 2018).)
